# Test results taken from the supplement of paper PMC10307832.
# Key:
# Assay in all cases: relative viability (nuclei count vs DMSO), 5 days (fraction); higher = more cells survive
# Tanzisertib + Phenformin = compound: O[C@H]1CC[C@H](Nc2ncc3nc(Nc4c(F)cc(F)cc4F)n([C@H]4CCOC4)c3n2)CC1 [Tanzisertib] + N=C(N)NC(=N)NCCc1ccccc1 [Phenformin] (partner 250 µM)
# How it was run: (§1)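 Each reported value is a median over duplicate plates. It expresses relative viability: treated-well nuclei count divided by vehicle-well nuclei count. Lung cancer cell lines in 1536-well plates were dosed by pin tool a day after seeding, alone with one drug or with a fixed anchor-drug dose plus five library-drug doses (not always all listed) in √10 steps, and nuclei were counted after 5 days.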
# [1] = compound: C1CNCCC1C2=CC(=NN2)C3=CC=NC=C3 + CC(=O)Nc1cccc(-n2c(=O)n(C3CC3)c(=O)c3c(Nc4ccc(I)cc4F)n(C)c(=O)c(C)c32)c1 [Trametinib] (partner 0.02 µM)
# How it was run: as §1
# Tanzisertib + Olaparib = compound: O[C@H]1CC[C@H](Nc2ncc3nc(Nc4c(F)cc(F)cc4F)n([C@H]4CCOC4)c3n2)CC1 [Tanzisertib] + O=C(c1cc(Cc2n[nH]c(=O)c3ccccc23)ccc1F)N1CCN(C(=O)C2CC2)CC1 [Olaparib] (partner 8 µM)
# How it was run: as §1
# Tanzisertib + Navitoclax = compound: O[C@H]1CC[C@H](Nc2ncc3nc(Nc4c(F)cc(F)cc4F)n([C@H]4CCOC4)c3n2)CC1 [Tanzisertib] + CC1(C)CCC(c2ccc(Cl)cc2)=C(CN2CCN(c3ccc(C(=O)NS(=O)(=O)c4ccc(N[C@H](CCN5CCOCC5)CSc5ccccc5)c(S(=O)(=O)C(F)(F)F)c4)cc3)CC2)C1 [Navitoclax] (partner 0.5 µM)
# How it was run: as §1
Cell Line,relative viability (Tanzisertib + Phenformin; first compound 0.08 µM),relative viability (Tanzisertib + Phenformin; first compound 0.253 µM),relative viability (Tanzisertib + Phenformin; first compound 0.8 µM),relative viability (Tanzisertib + Phenformin; first compound 2.53 µM),relative viability (Tanzisertib + Phenformin; first compound 8 µM),relative viability ([1]; first compound 0.08 µM),relative viability ([1]; first compound 0.8 µM),relative viability ([1]; first compound 2.53 µM),relative viability ([1]; first compound 8 µM),relative viability (Tanzisertib + Olaparib; first compound 0.08 µM),relative viability (Tanzisertib + Olaparib; first compound 0.253 µM),relative viability (Tanzisertib + Olaparib; first compound 0.8 µM),relative viability (Tanzisertib + Olaparib; first compound 2.53 µM),relative viability (Tanzisertib + Olaparib; first compound 8 µM),relative viability (Tanzisertib + Navitoclax; first compound 0.08 µM),relative viability (Tanzisertib + Navitoclax; first compound 0.253 µM),relative viability (Tanzisertib + Navitoclax; first compound 0.8 µM),relative viability (Tanzisertib + Navitoclax; first compound 2.53 µM),relative viability (Tanzisertib + Navitoclax; first compound 8 µM)
201T,0.454,0.501,0.477,0.459,0.386,0.712,0.731,0.753,0.675,0.854,0.902,0.855,0.848,0.864,1.19,1.18,1.23,1.18,1.18
A549,0.236,0.153,0.183,0.309,0.168,–,–,–,–,0.297,0.397,0.344,0.35,0.0802,1.3,1.08,1.26,1.1,1.3
A-427,0.394,0.411,0.413,0.326,0.22,0.748,0.857,0.779,0.874,0.783,0.66,0.811,0.877,0.782,0.952,0.938,1.01,0.86,0.958
ABC-1,0.242,0.251,0.226,0.211,0.218,–,–,–,–,0.838,0.757,0.634,0.701,0.792,–,–,–,–,–
BEN,0.254,0.235,0.275,0.266,0.255,0.769,0.936,1.05,1.02,1.05,0.968,1.05,1.12,0.997,0.0685,0.0675,0.0797,0.072,0.0632
CAL-12T,0.517,0.566,0.625,0.628,0.556,0.351,0.363,0.363,0.419,0.731,0.767,0.567,0.641,0.844,1.21,1.18,1.37,1.37,1.34
COR-L23,0.479,0.489,0.432,0.483,0.475,0.583,0.62,0.678,0.608,0.339,0.353,0.347,0.417,0.353,1.15,1.05,0.979,1.24,1.03
COR-L 105,0.467,0.465,0.449,0.473,0.327,0.42,0.501,0.427,0.47,0.729,0.631,0.792,0.726,0.816,0.88,0.789,0.728,0.819,0.683
Calu-6,–,–,–,–,–,–,–,–,–,0.583,0.566,0.563,0.597,0.509,0.872,0.835,0.9,0.848,0.994
ChaGo-K-1,0.547,0.545,0.447,0.493,0.482,0.916,0.85,0.897,0.807,0.511,0.422,0.453,0.45,0.438,1.01,1.08,1.1,0.79,0.683
EBC-1,–,–,–,–,–,–,–,–,–,0.747,0.675,0.675,0.603,0.536,0.433,0.419,0.451,0.404,0.318
EKVX,0.227,0.244,0.253,0.227,0.205,0.402,–,0.366,0.445,0.888,0.876,0.862,0.872,0.792,0.95,0.923,0.96,0.91,0.861
EMC-BAC-2,0.51,0.507,0.528,0.51,0.502,–,0.946,0.994,0.991,0.484,0.477,0.455,0.488,0.533,1.23,1.16,1.18,1.12,1.07
EPLC-272H,0.329,0.311,0.295,0.327,0.302,0.283,0.278,0.319,0.344,0.991,0.767,0.758,1.51,0.572,1.33,1.14,0.971,1.17,1.04
H3255,0.413,0.371,0.387,0.349,0.231,0.532,–,0.689,0.736,0.611,0.521,0.661,0.62,0.481,0.618,0.587,0.428,0.434,0.12
HARA,0.541,0.401,0.451,0.41,0.333,0.616,0.709,0.762,1.09,0.876,0.844,0.715,1.28,0.849,1.13,1.18,1.13,1.14,1.22
HCC-15,0.576,0.487,0.509,0.467,0.423,0.421,0.387,0.391,0.4,0.779,0.742,0.791,0.713,0.727,0.754,0.699,0.702,0.671,0.694
HCC-44,0.171,0.297,0.269,0.306,0.0849,1.09,1.06,1.04,1.05,0.99,1.08,0.965,1.03,1.11,1.18,0.985,0.992,0.916,0.973
HCC-78,0.739,0.848,0.782,0.597,0.512,0.742,–,0.821,0.757,0.922,0.73,0.854,0.852,0.622,0.705,0.741,0.766,0.801,0.673
HCC-366,0.671,0.599,0.651,0.681,0.646,0.292,0.428,0.393,0.337,–,0.319,0.36,0.353,0.308,1.16,1.02,1.08,1.13,1.01
HCC-827,0.409,0.417,0.398,0.382,0.242,0.524,0.5,0.599,0.601,0.616,0.716,0.711,0.54,0.355,0.961,1.01,1.11,1,0.742

Cell Line,relative viability (Tanzisertib + Phenformin; first compound 0.08 µM),relative viability (Tanzisertib + Phenformin; first compound 0.253 µM),relative viability (Tanzisertib + Phenformin; first compound 0.8 µM),relative viability (Tanzisertib + Phenformin; first compound 2.53 µM),relative viability (Tanzisertib + Phenformin; first compound 8 µM),relative viability ([1]; first compound 0.08 µM),relative viability ([1]; first compound 0.8 µM),relative viability ([1]; first compound 2.53 µM),relative viability ([1]; first compound 8 µM),relative viability (Tanzisertib + Olaparib; first compound 0.08 µM),relative viability (Tanzisertib + Olaparib; first compound 0.253 µM),relative viability (Tanzisertib + Olaparib; first compound 0.8 µM),relative viability (Tanzisertib + Olaparib; first compound 2.53 µM),relative viability (Tanzisertib + Olaparib; first compound 8 µM),relative viability (Tanzisertib + Navitoclax; first compound 0.08 µM),relative viability (Tanzisertib + Navitoclax; first compound 0.253 µM),relative viability (Tanzisertib + Navitoclax; first compound 0.8 µM),relative viability (Tanzisertib + Navitoclax; first compound 2.53 µM),relative viability (Tanzisertib + Navitoclax; first compound 8 µM)
HOP-62,0.758,0.709,0.671,0.671,0.729,0.344,0.415,0.425,0.357,0.268,0.426,0.587,0.643,0.556,0.978,0.994,0.819,1.11,1.26
IA-LM,–,–,–,–,–,–,–,–,–,0.738,0.765,0.754,0.859,0.789,0.814,0.622,0.691,0.963,1.1
LC-2-ad,0.648,0.58,0.638,0.651,0.433,0.887,1.02,0.93,0.932,0.68,0.743,0.706,0.714,0.794,0.549,0.441,0.548,0.534,0.507
LCLC-97TM1,0.471,0.425,0.38,0.476,0.524,0.191,0.204,0.172,0.193,0.487,0.51,0.416,0.301,0.47,–,0.53,0.38,0.394,0.462
LCLC-103H,0.375,0.327,0.309,0.345,0.343,0.689,0.724,0.67,0.674,0.76,0.813,0.816,0.8,0.81,–,–,–,–,–
LK-2,0.77,0.517,0.559,0.548,0.228,0.605,0.761,0.591,0.88,0.772,0.835,0.712,0.669,0.769,0.871,0.847,0.87,0.884,0.9
LOU-NH91,0.731,0.763,0.746,0.73,0.439,0.778,0.769,0.841,0.766,0.948,0.896,0.989,0.89,0.727,0.81,0.664,0.747,0.675,0.497
LU99A,0.971,0.82,0.884,0.813,0.786,0.48,0.616,0.561,0.543,0.268,0.253,0.246,0.276,0.255,0.713,0.847,0.879,0.743,0.781
LXF-289,0.55,0.532,0.519,0.545,0.535,0.658,0.768,0.653,0.706,1.13,1.02,1.12,1.02,1.13,1.05,0.917,1,0.962,1.03
NCI-H358,0.361,0.318,0.322,0.271,0.212,0.12,0.128,0.136,0.169,0.623,0.547,0.586,0.583,0.492,–,–,–,–,–
NCI-H522,0.783,0.57,0.667,0.677,0.572,0.764,0.716,0.918,0.744,0.629,0.809,0.726,0.647,0.634,–,–,–,–,–
NCI-H650,0.472,0.476,0.461,0.526,0.327,0.825,1.14,1.1,1.02,0.373,0.391,0.359,0.426,0.391,–,–,–,–,–
NCI-H661,0.32,0.256,0.24,0.285,0.284,0.568,0.561,0.586,0.596,0.807,0.756,0.74,0.786,0.724,–,–,–,–,–
NCI-H1299,–,–,–,–,–,–,–,–,–,0.997,0.972,0.96,1.1,1.03,1.06,1.09,1.06,1.08,1.12
NCI-H1563,0.662,0.688,0.654,0.681,0.624,–,–,–,–,–,–,–,–,–,–,–,–,–,–
NCI-H1623,0.587,0.574,0.639,0.572,0.551,–,–,–,–,–,–,–,–,–,–,–,–,–,–
NCI-H1648,–,–,–,–,–,0.464,0.483,–,0.516,0.662,1.22,0.797,0.817,0.765,–,–,–,–,–
NCI-H1703,–,–,–,–,–,–,–,–,–,0.457,0.453,0.388,0.35,0.392,1.12,0.837,1.05,1.03,0.927
NCI-H2342,0.618,0.643,0.57,0.557,0.532,0.716,0.798,0.794,1.04,0.572,0.423,0.483,0.485,0.439,–,–,–,–,–
SW 900,0.725,0.601,0.749,0.587,0.512,0.751,–,0.901,0.836,–,0.82,0.963,0.782,0.722,–,–,–,–,–
